From the supplement of paper PMC11208160

Experiment: recombinant UMI read abundance after kanamycin selection (control-corrected) (log10(CPM+1)); higher = more efficient recombination; extreme values may be limits of the assay; sequences stand for … in AGTGCAGAGAAAATCGGCCAGTTTTCTCTGCCTGCAGTCCGCATGCCGTGGGACCCCTTGGGTTCTAACCTGTTGCCTAGATTTATGCAGCGGACTGCCTTTCTCCCAAAGTGATAAACCGG…AGGTTGGTTTCACT; site = the 11-nt donor
Experimental: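 Pooled E. coli donor-specificity screen for the IS621 bridge recombinase. Each library member carries a reprogrammed 11-nt donor and a full-length LE bridge RNA expressed in cis from the natural promoter, with a paired donor-binding loop (8-nt LDG + 4-nt RDG) and a target-binding loop fixed to T5. It is co-electroporated with a T5 target plasmid; recombinase is induced with 0.07 mM IPTG and recombinants are selected on kanamycin. UMIs are counted as CPM, averaged over two biological replicates and corrected by the unselected control. Molecule = full bridge RNA written as DNA, built from the T5 scaffold: LDG = donor specificity nt 1-8, RDG = reverse complement of nt 8-11.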
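Also: IS621 bridge recombinase in Escherichia coli cells against a fixed T5 target plasmid.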

Sequence	recombinant UMI read abundance (log10)
ACCCAAGCATGGACCGGTTTTCCCGGTAATCCGTATTTGAG (site AGCCAAGCTCT)	0.021
ACCCAAGCATGGACCGGTTTTCCCGGTAATCCGTATTTGAG (site ATCCAAGCTCT)	0.467
ACCCACCCATGGACCGGTTTTCCCGGTAATCCGTATTTGAG (site ACCCACCCTCT)	0.00795
ACCCTAGCATGGACCGGTTTTCCCGGTAATCCGTATTTGAT (site ACCCTAGCTAT)	0.558
ACCCTCTCATGGACCGGTTTTCCCGGTAATCCGTATTTGGG (site ACCCTCTCTCC)	0.0124
ACCGAGGCATGGACCGGTTTTCCCGGTAATCCGTATTTGGG (site ACCGAGGCTCC)	0.157
ACCGCGGCATGGACCGGTTTTCCCGGTAATCCGTATTTGAT (site ACCGCGGCTAT)	1.78
ACCGGATCATGGACCGGTTTTCCCGGTAATCCGTATTTGAG (site ACCGGATCTCT)	1.22
ACCGGATCATGGACCGGTTTTCCCGGTAATCCGTATTTGCG (site ACCGGATCTCG)	2.56
ACCGTAACATGGACCGGTTTTCCCGGTAATCCGTATTTGCA (site ACAGTATCTTG)	1.49
ACCGTAACATGGACCGGTTTTCCCGGTAATCCGTATTTGCA (site ACCGTAACTTG)	2.34
ACCGTATCATGGACCGGTTTTCCCGGTAATCCGTATTTGGA (site ACAGTATCTTG)	0.692
ACCGTATCATGGACCGGTTTTCCCGGTAATCCGTATTTGGA (site ACCGTATCTTC)	1.83
ACCTAGACATGGACCGGTTTTCCCGGTAATCCGTATTTGGA (site ACCTAGACTAC)	0
ACCTAGACATGGACCGGTTTTCCCGGTAATCCGTATTTGGA (site ACCTAGACTCC)	0.0104
ACCTAGACATGGACCGGTTTTCCCGGTAATCCGTATTTGGA (site ACCTAGACTGC)	0
ACCTAGACATGGACCGGTTTTCCCGGTAATCCGTATTTGGA (site ACCTAGACTTC)	0.725
ACCTAGTCATGGACCGGTTTTCCCGGTAATCCGTATTTGGG (site ACCTAGACTCC)	0

Sequence	recombinant UMI read abundance (log10)
ACCTAGTCATGGACCGGTTTTCCCGGTAATCCGTATTTGGG (site ACCTAGCCTCC)	0.017
ACCTAGTCATGGACCGGTTTTCCCGGTAATCCGTATTTGGG (site ACCTAGGCTCC)	0.0399
ACCTAGTCATGGACCGGTTTTCCCGGTAATCCGTATTTGGG (site ACCTAGTCTCC)	0.0642
ACCTATACATGGACCGGTTTTCCCGGTAATCCGTATTTGAC (site AACTATACTGT)	0
ACCTATACATGGACCGGTTTTCCCGGTAATCCGTATTTGAC (site ACCTATACTGT)	1.58
ACCTATACATGGACCGGTTTTCCCGGTAATCCGTATTTGAC (site AGCTATACTGT)	0.0116
ACCTATACATGGACCGGTTTTCCCGGTAATCCGTATTTGAC (site ATCTATACTGT)	0.368
ACCTCGGCATGGACCGGTTTTCCCGGTAATCCGTATTTGTT (site ACCTCGGCTAA)	0.681
ACCTGGGCATGGACCGGTTTTCCCGGTAATCCGTATTTGCA (site ACCTGGGCTTG)	0.909
ACCTTGACATGGACCGGTTTTCCCGGTAATCCGTATTTGGG (site ACCTAGACTCC)	0.0118
ACCTTGACATGGACCGGTTTTCCCGGTAATCCGTATTTGGG (site ACCTCGACTCC)	0.0142
ACCTTGACATGGACCGGTTTTCCCGGTAATCCGTATTTGGG (site ACCTGGACTCC)	0.0127
ACCTTGACATGGACCGGTTTTCCCGGTAATCCGTATTTGGG (site ACCTTGACTCC)	0.0408
ACGAAGACATGGACCGGTTTTCCCGGTAATCCGTATTTGCA (site AAGAAGACTTG)	2.3
ACGAAGACATGGACCGGTTTTCCCGGTAATCCGTATTTGCA (site ACGAAGACTTG)	2.78
ACGAAGACATGGACCGGTTTTCCCGGTAATCCGTATTTGCA (site AGGAAGACTTG)	1.81
ACGAAGACATGGACCGGTTTTCCCGGTAATCCGTATTTGCA (site ATGAAGACTTG)	2.04
ACGAAGACATGGACCGGTTTTCCCGGTAATCCGTATTTGCG (site ACGAAGACTCG)	2.77
